Assay results taken from paper PMC10052035, “Virtual Screening, Structural Analysis, and Formation Thermodynamics of Carbamazepine Cocrystals” (Pharmaceutics, 2023).

Legend:
[1] = Solubility of cocrystals and their constituents in organic solvents (shake-flask, HPLC); details: for solubility at 48 h: organic solvent or mixture, thermodynamic from solid
Experimental: For the [CBZ + 3AcAmBA] (1:1) cocrystal, methanol was used. For [CBZ + 4AcAmBA] (1:1), all the experiments were performed in acetonitrile. An excess of the solid was placed in an Eppendorf tube, and 2 mL of solvent was added. The resulting suspension was shaken in a ThermoMixer C (Eppendorf, Hamburg, Germany) at 800 rpm for 48 h at the specified temperature. Subsequently, the saturated solution was separated using a 0.22 μm PTEF filter, diluted, and analyzed using HPLC. The solid phases after the experiment were collected and characterized by PXRD. Each experiment was repeated three times.
The HPLC was performed on an LC-20 AD Shimadzu Prominence model (Shimadzu, Kyoto, Japan) equipped with a PDA detector and a Luna C-18 column (150 mm × 4.6 mm i.d., 5 μm particle size, and 100 Å pore size). The column temperature was set to 40 °C. To achieve the proper separation of the cocrystal components, different ratios of the mobile phase, consisting of acetonitrile and a 0.1% aqueous solution of trifluoroacetic acid (35:65 v/v), were used. The flow rate was 1.0 mL·min^−1, and the injection volume was 20 μL. The UV detection of carbamazepine, 2-acetamidobenzoic acid, 3-acetamidobenzoic acid, and 4-acetamidobenzoic acid was carried out at the wavelengths of 285 nm, 249 nm, 220 nm, and 266 nm, respectively.

[2] = set-up: method as in doi:10.1016/j.molliq.2021.118320; details: pH 2.0, 310.2 K; value belongs to the coformer of the cocrystal named in the row; ref [103]; cited from earlier work
[3] = type: physicochemical; details: for Scc, solubility of the cocrystal: pH 2; for [CF]eu, eutectic concentration of coformer / [CBZ]eu, eutectic concentration of CBZ / Keu, eutectic constant: pH 2.0, 310.2 K; for [CF]eu, eutectic concentration of coformer: eutectic point; for [CBZ]eu, eutectic concentration of CBZ: eutectic point (drug and cocrystal in equilibrium with solution); for Keu, eutectic constant: Keu = [CF]eu/[CBZ]eu
Experimental: The saturation shake-flask method was used to measure the aqueous solubility of the CBZ cocrystals in a pH 2.0 buffer solution at the eutectic point, where drug and cocrystal are in equilibrium with the solution. The eutectic point between the cocrystal and the drug was reached by suspending 80 mg of the cocrystal and 30 mg of CBZ in 2 mL of the buffer solution. The obtained suspension was stirred continuously for 72 h at 37.0 ± 0.1 °C. After equilibration, the final pH of the solution was measured. The suspension was diluted with the mobile phase after being filtered through a […] PTEF filter. Concentrations of compounds were analyzed by HPLC. The solid phases after the experiment were characterized by PXRD.
The column temperature was set to 40 °C.

[4] = Cocrystal formation thermodynamics from solubility data (Kf, ΔformG, ΔformH, ΔformS); type: physicochemical; details: for ΔformH: van't Hoff, 293.15-313.15 K
Source text: It is known that the relative stability of a cocrystal with respect to a physical mixture of the parent constituents at a given temperature can be quantitatively expressed in terms of the free-energy change, ΔformG, of the cocrystallization reaction. Analyzing the temperature dependence of the Gibbs formation energy can provide further information on the enthalpy and entropy contributions to the driving force of the process as well as help to estimate the thermodynamic transition temperature, which determines the stability domains of a cocrystal and its individual constituents. The experimental assessment of ΔformG is based on solubility data for the starting molecules and the corresponding cocrystal in the same solvent at a predetermined temperature using the equation below:(3) ΔformG=−RTlnap,Ax×ap,By/acc,Ax×acc,By=−RTlnap,Ax×ap,By/Ksp=−RTlnKf, where ap,A and ap,B represent the activities of pure A and B compounds in a saturated solution; acc,A and acc,B are the activities of the cocrystal components in a solution, in equilibrium with pure cocrystal; Ksp is the solubility product of a cocrystal; T is the temperature; x and y are the stoichiometric coefficients; and Kf is an equilibrium constant at the experimental temperature.
Using the van’t Hoff expression, the enthalpy of the cocrystallization process, ΔformH, may be estimated by evaluating the Kf values at various temperatures (assuming that ΔformH is a constant within the selected temperature range):(4) dlnKf/d(1/T)=−ΔformH/R
The entropy of cocrystal formation, ΔformS, can be estimated from (5) ΔformS=ΔformH−ΔformG/T
Even though the activities in Equation (3) are usually approximated by the corresponding molar concentration while neglecting the activity coefficients, a more valid approximation implies that the activity coefficients for the two solute species are constant along the cocrystal solubility line and equal to the activity coefficients of the pure components in the saturated solutions in the same solvent and temperature. […] Table S5 contains the solubility values of CBZ, coformers, and the CBZ cocrystals with emodin, paeonol, nicotinamide, and glutaric acid in various organic solvents.

[5] = Preliminary solution stability (congruent/incongruent dissolution) in organic solvents, PXRD of residual phases; type: physicochemical
Source text: The most convenient way to determine the solubility product of a cocrystal is to ensure that the solution and the cocrystal are at thermodynamic equilibrium, i.e., that the cocrystal is congruently soluble in the chosen solvent. In this work, acetonitrile was primarily utilized as a medium to carry out solubility experiments. […] (1:1) and [CBZ + 3AcAmBA] […] In the case of [CBZ + 3AcAmBA] (1:1), incongruent solubility of the cocrystal was expected given the high solubility ratio of the components in acetonitrile (Table S6). This is likely to result in an asymmetric ternary phase diagram with a narrow stability region for the [CBZ + 3AcAmBA] (1:1) cocrystal. […] It is reasonable to assume that the poor solution stability of the [CBZ + 2AcAmBA] (1:1) cocrystal is not due to the large solubility difference between CBZ and 2AcAmBA but rather because of the low intrinsic thermodynamic stability of the binary solid form caused by the lack of energy gain associated with cocrystal formation, which leads to a higher solubility in all solvents considered. […] (1:1) cocrystal compared to the parent pure components (~40 °C, Figure S2), implicitly corroborate this supposition. Since no suitable solvent for solubility studies of [CBZ + 2AcAmBA] (1:1) could be found, this system was not further explored. The [CBZ + 3AcAmBA]

[6] = acetonitrile, 293.15 K, value is C∙10^2
[7] = acetonitrile, 298.15 K, value is C∙10^2
[8] = acetonitrile, 303.15 K, value is C∙10^2
[9] = acetonitrile, 308.15 K, value is C∙10^2
[10] = acetonitrile, 313.15 K, value is C∙10^2
[11] = 298.2K, listed as [CBZ+4AcAmBA] (1:1)

SMILES: CC(=O)Nc1cccc(C(=O)O)c1 [Cocrystal 3AcAmBA, 3-acetamidobenzoic acid]
- solubility at 48 h ([1]; acetonitrile, 20 °C): 4.3 ± 1 mM
- solubility at 48 h ([1]; methanol, 20 °C): 75 ± 0.5 mM
- solubility at 48 h ([1]; methanol, 25 °C): 87 ± 0.5 mM
- solubility at 48 h ([1]; methanol, 30 °C): 97 ± 0.5 mM
- solubility at 48 h ([1]; methanol, 35 °C): 109 ± 0.8 mM
- solubility at 48 h ([1]; methanol, 40 °C): 119.5 ± 0.6 mM
- Cp∙10^2, solubility of pure component ([1]; methanol, 293.15 K, value is C∙10^2): 7.50±0.05 mol/l
- S0(CF), intrinsic solubility of coformer [2]: 4.1 mM

SMILES: CC(=O)Nc1ccc(C(=O)O)cc1.NC(=O)N1c2ccccc2C=Cc2ccccc21 [[CBZ + 4AcAmBA] (1:1)]
- Scc, solubility of the cocrystal [3]: (0.80 ± 0.02)·10^−3 Mol·L^−1
- [CF]eu, eutectic concentration of coformer [3]: (6.4 ± 0.2)·10^−4 Mol·L^−1
- [CBZ]eu, eutectic concentration of CBZ [3]: (1.00 ± 0.05)·10^−3 Mol·L^−1
- Keu, eutectic constant [3]: 0.64 ± 0.04
- Ccc,4AcAmBA∙10^2, coformer concentration in equilibrium with cocrystal [1, 6]: 0.880±0.016 mol/l
- Ccc,CBZ∙10^2, CBZ concentration in equilibrium with cocrystal [1, 6]: 0.875±0.014 mol/l
- Ccc,4AcAmBA∙10^2, coformer concentration in equilibrium with cocrystal [1, 7]: 1.046±0.010 mol/l
- Ccc,CBZ∙10^2, CBZ concentration in equilibrium with cocrystal [1, 7]: 1.013±0.015 mol/l
- Ccc,4AcAmBA∙10^2, coformer concentration in equilibrium with cocrystal [1, 8]: 1.222±0.017 mol/l
- Ccc,CBZ∙10^2, CBZ concentration in equilibrium with cocrystal [1, 8]: 1.198±0.007 mol/l
- Ccc,4AcAmBA∙10^2, coformer concentration in equilibrium with cocrystal [1, 9]: 1.472±0.008 mol/l
- Ccc,CBZ∙10^2, CBZ concentration in equilibrium with cocrystal [1, 9]: 1.428±0.009 mol/l
- Ccc,4AcAmBA∙10^2, coformer concentration in equilibrium with cocrystal [1, 10]: 1.707±0.030 mol/l
- Ccc,CBZ∙10^2, CBZ concentration in equilibrium with cocrystal [1, 10]: 1.684±0.022 mol/l
- T·ΔformS ([4]; 298.2K): -0.574 ± 0.14 kcal/mol
- lnKf ([4]; 298.2K): 2.86 ± 0.03
- ΔformG ([4]; 298.2K): -1.69 ± 0.019 kcal/mol
- T·ΔformS [4, 11]: -0.574 ± 0.14 kcal/mol
- ΔformG [4, 11]: -1.69 ± 0.019 kcal/mol
- ΔformH ([4]; 298.2K): -2.27 ± 0.14 kcal/mol
- ΔformH [4, 11]: -2.27 ± 0.14 kcal/mol
- lnKf ([4]; acetonitrile, 293.15 K): 2.93±0.04
- ∆formG ([4]; acetonitrile, 293.15 K): -1.7 ± 0.022 kcal/mol
- lnKf ([4]; acetonitrile, 298.15 K): 2.86±0.03
- ∆formG ([4]; acetonitrile, 298.15 K): -1.69 ± 0.019 kcal/mol
- lnKf ([4]; acetonitrile, 303.15 K): 2.82±0.03
- ∆formG ([4]; acetonitrile, 303.15 K): -1.7 ± 0.017 kcal/mol
- lnKf ([4]; acetonitrile, 308.15 K): 2.75±0.02
- ∆formG ([4]; acetonitrile, 308.15 K): -1.68 ± 0.012 kcal/mol
- lnKf ([4]; acetonitrile, 313.15 K): 2.67±0.03
- ∆formG ([4]; acetonitrile, 313.15 K): -1.66 ± 0.019 kcal/mol

SMILES: CC(=O)Nc1ccccc1C(=O)O.NC(=O)N1c2ccccc2C=Cc2ccccc21 [[CBZ + 2AcAmBA] (1:1)]
- Scc, solubility of the cocrystal [3]: (2.8 ± 0.1)·10^−3 Mol·L^−1
- [CF]eu, eutectic concentration of coformer [3]: (7.5 ± 0.1)·10^−3 Mol·L^−1
- [CBZ]eu, eutectic concentration of CBZ [3]: (1.10 ± 0.06)·10^−3 Mol·L^−1
- Keu, eutectic constant [3]: 6.8 ± 0.4
- dissolution behaviour / solution stability ([5]; acetonitrile): dissolved incongruently
- dissolution behaviour / solution stability ([5]; several other tested solvents, including methanol, ethanol, and acetone): incongruent behavior
